According to ChEMBL document CHEMBL3871286, “Tetrahydroquinoline-based tricyclic amines as potent and selective agonists of the 5-HT2C receptor” (Bioorg Med Chem Lett, 2016):
pEC50, pKi: −log10 of the molar value.

Assays:
[1] = target: T1, 5-hydroxytryptamine receptor 2B (Homo sapiens, UniProt P41595); experiment: Agonist activity at 5-HT2B receptor (unknown origin) expressed in HEK293 cells assessed as [3H]inositol phosphate accumulation after 2 hrs by scintillation counting; format: cell-based
[2] = target: T2, 5-hydroxytryptamine receptor 2C (Homo sapiens, UniProt P28335); experiment: Agonist activity at unedited 5-HT2C receptor (unknown origin) expressed in HEK293 cells assessed as [3H]inositol phosphate accumulation after 2 hrs by scintillation counting; format: functional, cell-based; conditions: for EC50: read-out: pEC50 (converted)
T2 sequence (P28335 whole entry): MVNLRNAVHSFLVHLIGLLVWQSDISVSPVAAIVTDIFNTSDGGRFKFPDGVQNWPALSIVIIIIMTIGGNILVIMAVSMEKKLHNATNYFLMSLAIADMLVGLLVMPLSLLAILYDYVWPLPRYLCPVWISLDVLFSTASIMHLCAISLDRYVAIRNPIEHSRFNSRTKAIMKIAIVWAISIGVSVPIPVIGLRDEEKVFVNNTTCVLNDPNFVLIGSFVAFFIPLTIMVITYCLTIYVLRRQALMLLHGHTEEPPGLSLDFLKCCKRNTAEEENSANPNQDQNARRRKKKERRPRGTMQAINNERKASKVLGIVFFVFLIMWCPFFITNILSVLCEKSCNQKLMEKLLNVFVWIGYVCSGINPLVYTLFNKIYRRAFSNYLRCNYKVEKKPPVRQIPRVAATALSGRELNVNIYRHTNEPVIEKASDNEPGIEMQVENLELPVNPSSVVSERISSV

[3] = target: 5-HT2B receptor (Homo sapiens, UniProt P41595); experiment: Agonist activity at 5-HT2B receptor (unknown origin) expressed in HEK293 cells assessed as [3H]inositol phosphate accumulation at 10 uM after 2 hrs by scintillation counting relative to serotonin; format: cell-based; conditions: HEK293 cells expressing 5-HT2B receptor
[4] = target: T3, 5-hydroxytryptamine receptor 2C (Homo sapiens) (UniProt P28335); experiment: Agonist activity at unedited 5-HT2C receptor (unknown origin) expressed in HEK293 cells assessed as [3H]inositol phosphate accumulation at 10 uM after 2 hrs by scintillation counting relative to serotonin; format: functional, cell-based
T3 sequence (whole entry): T2 sequence (P28335 whole entry)

[5] = target: 5-HT2A receptor (Homo sapiens, UniProt P28223); experiment: Agonist activity at 5-HT2A receptor (unknown origin) expressed in HEK293 cells assessed as [3H]inositol phosphate accumulation at 10 uM after 2 hrs by scintillation counting relative to serotonin; format: cell-based; conditions: HEK293 cells expressing 5-HT2A receptor
[6] = target: T1, 5-hydroxytryptamine receptor 2B; experiment: Displacement of [125I]DOI from recombinant human 5-HT2B receptor expressed in HEK293 cell membranes after 1 hr by scintillation counting
[7] = target: T2, 5-hydroxytryptamine receptor 2C; experiment: Displacement of [125I]DOI from recombinant human 5-HT2C receptor expressed in HEK293 cell membranes after 1 hr by scintillation counting
[8] = target: T4, 5-hydroxytryptamine receptor 2A (Homo sapiens, UniProt P28223); experiment: Agonist activity at 5-HT2A receptor (unknown origin) expressed in HEK293 cells assessed as [3H]inositol phosphate accumulation after 2 hrs by scintillation counting; format: cell-based
[9] = target: T4, 5-hydroxytryptamine receptor 2A; experiment: Displacement of [125I]DOI from recombinant human 5-HT2A receptor expressed in HEK293 cell membranes after 1 hr by scintillation counting

T4 sequence (P28223 whole entry): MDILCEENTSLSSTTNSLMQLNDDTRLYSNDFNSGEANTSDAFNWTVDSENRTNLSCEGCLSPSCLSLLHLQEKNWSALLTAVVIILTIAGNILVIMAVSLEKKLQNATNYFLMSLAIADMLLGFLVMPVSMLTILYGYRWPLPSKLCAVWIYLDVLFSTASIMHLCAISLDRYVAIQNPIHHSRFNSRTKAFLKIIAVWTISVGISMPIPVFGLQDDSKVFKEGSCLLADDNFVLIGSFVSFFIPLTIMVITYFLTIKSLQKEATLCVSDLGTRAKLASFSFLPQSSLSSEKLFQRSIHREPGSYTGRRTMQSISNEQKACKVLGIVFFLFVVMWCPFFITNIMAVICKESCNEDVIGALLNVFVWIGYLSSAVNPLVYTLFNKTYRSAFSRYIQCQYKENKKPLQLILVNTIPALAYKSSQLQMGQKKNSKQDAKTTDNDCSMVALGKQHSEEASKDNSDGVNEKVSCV
Sequence of 5-HT2B receptor (P41595 whole entry): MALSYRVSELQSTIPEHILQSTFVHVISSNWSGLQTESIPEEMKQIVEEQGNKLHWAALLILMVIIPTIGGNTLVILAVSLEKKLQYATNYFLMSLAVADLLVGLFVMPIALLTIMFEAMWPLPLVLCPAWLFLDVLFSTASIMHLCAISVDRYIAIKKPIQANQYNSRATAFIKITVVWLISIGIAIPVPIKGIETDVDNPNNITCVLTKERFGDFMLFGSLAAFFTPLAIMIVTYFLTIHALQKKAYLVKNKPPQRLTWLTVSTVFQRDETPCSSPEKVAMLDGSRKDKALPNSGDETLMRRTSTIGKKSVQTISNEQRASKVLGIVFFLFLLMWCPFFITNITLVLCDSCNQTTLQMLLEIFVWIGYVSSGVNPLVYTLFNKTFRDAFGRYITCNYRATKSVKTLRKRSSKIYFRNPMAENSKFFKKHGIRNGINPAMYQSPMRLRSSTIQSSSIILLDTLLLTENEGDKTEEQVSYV
T1 sequence (P41595 whole entry): as above
Sequence of 5-HT2A receptor (P28223 whole entry): as the sequence (P28223 whole entry) above

Row | SMILES | pEC50 [1] | EC50 [2] | Emax at 2 h, 10 µM [3] | Emax [4] | Emax at 2 h, 10 µM [5] | pKi [6] | pKi [7] | pEC50 [8] | pKi [9] | pEC50 ([2]; read-out: EC50)
1 | c1ccc2c(c1)CC[C@@H]1CNCCN21 | 7.20 | 2.51 nM | 28% | 97% | – | – | – | – | – | –
2 | COc1cc2c(cc1Cl)CC[C@@H]1CNCCCN21 | 7.20 | 3.98 nM | 84% | 85% | – | – | – | – | – | –
3 | Clc1cccc(N2CCNCC2)c1 [CHLOROPHENYLPIPERAZINE] | – | – | 22% | 90% | 12% | – | – | – | – | –
4 | COc1cc2c(cc1Cl)N1CCCNC[C@H]1CC2 | 6.80 | 39.8 nM | 23% | 91% | – | – | – | – | – | –
5 | CCCc1ccc2c(c1)CCC1CNCCN21 (stereo unspecified) | 6.20 | 20 nM | 9% | 100% | – | – | – | – | – | –
6 | c1cc(Cc2ccc3c(c2)OCO3)c2c(c1)N1CCNCC1CC2 (stereo unspecified) | 5.40 | 6.31 nM | 26% | 100% | 64% | 6.90 | 9.10 | 6.70 | 8.80 | –
7 | COc1ccc2c(c1)N1CCCNC[C@H]1CC2 | 6.20 | 79.4 nM | 37% | 95% | – | – | – | – | – | –
8 | CC1(C)CC2CNCCN2c2ccccc21 (stereo unspecified) | < 5.00 | 1260 nM | – | 84% | – | – | – | – | – | –
9 | c1ccc2c(c1)CCC1CCNCCCN21 (stereo unspecified) | 6.00 | – | 60% | 99% | – | – | – | – | – | 6.89
10 | c1ccc2c(c1)CC[C@@H]1CCNCCCN21 | 6.30 | 63.1 nM | 53% | 86% | – | – | – | – | – | –
11 | Fc1ccc2c(c1Cc1ccccc1)CC[C@@H]1CNCCCN21 | 5.10 | 20 nM | 71% | 108% | – | – | – | – | – | –
12 | Fc1ccc2c(c1)CCC1CNCCN21 (stereo unspecified) | 6.90 | 3.16 nM | 44% | 96% | – | – | – | – | – | –
13 | c1cc(CC2CCC2)c2c(c1)N1CCCNCC1CC2 (stereo unspecified) | < 6.00 | 126 nM | – | 116% | – | – | – | – | – | –
14 | CC1(C)Cc2ccccc2N2CCNCC21 (stereo unspecified) | < 6.00 | > 1000 nM | – | – | – | – | – | – | – | –
15 | COc1cccc2c1N1CCCNC[C@H]1CC2 | 7.00 | 31.6 nM | 55% | 17% | – | – | – | – | – | –
16 | Cc1cccc2c1N1CCNCC1CC2 (stereo unspecified) | 7.30 | 63.1 nM | 10% | 86% | – | – | – | – | – | –
17 | COc1ccc2c(c1Cl)N1CCCNC[C@H]1CC2 | 8.10 | 158 nM | 7% | 72% | – | – | – | – | – | –
18 | c1cc(OC2CCC2)c2c(c1)N1CCNCC1CC2 (stereo unspecified) | 6.10 | 20 nM | 9% | 98% | – | – | – | – | – | –
19 | CCCc1ccc2c(c1)N1CCNCC1CC2 (stereo unspecified) | 6.70 | 63.1 nM | 19% | 87% | – | – | – | – | – | –

Row | SMILES | pEC50 [1] | EC50 [2] | Emax at 2 h, 10 µM [3] | Emax [4] | Emax at 2 h, 10 µM [5] | pKi [6] | pKi [7] | pEC50 [8] | pKi [9] | pEC50 ([2]; read-out: EC50)
20 | CCSc1cccc2c1CCC1CNCCN21 (stereo unspecified) | 7.10 | 0.316 nM | 46% | 101% | – | – | – | – | – | –
21 | Clc1cccc2c1N1CCCNCCC1CC2 (stereo unspecified) | 7.00 | 25.1 nM | 20% | 85% | – | – | – | – | – | –
22 | c1ccc(Oc2cccc3c2CCC2CNCCN32)cc1 (stereo unspecified) | 5.20 | 100 nM | 94% | 112% | – | – | – | – | – | –
23 | COc1cc2c(cc1Cc1ccccc1)CC[C@@H]1CNCCCN21 | < 6.00 | > 1000 nM | – | – | – | – | – | – | – | –
24 | COc1cccc2c1CC[C@@H]1CNCCCN21 | 6.40 | 1000 nM | 74% | 92% | – | – | – | – | – | –
25 | c1ccc(-c2cccc3c2CCC2CNCCN32)cc1 (stereo unspecified) | 5.60 | 126 nM | 72% | 97% | – | – | – | – | – | –
26 | CC1(C)Cc2cccc(Cl)c2N2CCNCC21 (stereo unspecified) | 7.00 | > 10000 nM | 84% | – | – | 8.20 | 6.10 | < 5.00 | 5.70 | –
27 | Fc1ccc2c(c1)N1CCNCC1CC2 (stereo unspecified) | 7.50 | 0.794 nM | 38% | 100% | – | – | – | – | – | –
28 | Fc1ccc2c(c1Cl)N1CCNCC1CC2 (stereo unspecified) | 8.70 | 6.31 nM | 12% | 94% | – | – | – | – | – | –
29 | Fc1ccc2c(c1)CC[C@@H]1CNCCCN21 | 6.20 | 25.1 nM | 59% | 94% | – | – | – | – | – | –
30 | c1ccc2c(c1)CC[C@H]1CCNCCCN21 | < 5.00 | > 10000 nM | – | – | – | – | – | – | – | –
31 | COc1ccc2c(c1)CC[C@@H]1CNCCCN21 | 5.90 | 631 nM | 76% | 80% | – | – | – | – | – | –
32 | COc1ccc2c(c1)CCC1CNCCN21 (stereo unspecified) | 6.10 | 251 nM | 57% | 101% | – | – | – | – | – | –
33 | c1cc(C2CCC2)c2c(c1)N1CCNCC1CC2 (stereo unspecified) | 7.40 | 3.16 nM | 112% | 110% | – | – | – | – | – | –
34 | COc1cc2c(c(Cl)c1Cl)N1CCCNC[C@H]1CC2 | – | 10 nM | < 5% | 80% | – | – | – | – | – | –
35 | Clc1ccc2c(c1)CCC1CCNCCCN21 (stereo unspecified) | 6.20 | 200 nM | 71% | 83% | – | – | – | – | – | –
36 | COCc1cccc2c1CCC1CNCCN21 (stereo unspecified) | 5.90 | 20 nM | 77% | 113% | – | – | – | – | – | –
37 | Cc1cccc2c1CCC1CNCCN21 (stereo unspecified) | 7.50 | 2 nM | 65% | 108% | – | – | – | – | – | –
